Legend:
[1] = in vivo; cited from earlier work
[2] = system: blood coagulation; assay: Thrombelastography (TEG) of whole blood during Flolan infusion; assay type: in vivo, healthy humans; settings: Flolan 4 ng/kg/min i.v. for 2 h; samples after 60 and 120 min infusion vs baseline; 6 healthy volunteers; kaolin
Description: The TEG analyzer uses a small whole blood sample in a rotating cup and a pin suspended in the blood by a torsion wire, which is monitored for motion. To speed up the clot formation, a standardized amount of an activator of coagulation (e.g. Kaolin, tissue factor) may be added to the cup just before the pin is placed in the cup. The torque of the rotating cup is transmitted to the immersed pin only after fibrin and/or fibrin-platelet bonding has linked the cup and pin together. The strength and rate of these bonds affect the magnitude of the pin motion such that strong clots move the pin directly in phase with cup motion. Thus, the TEG technology documents the interaction of platelets with the protein coagulation cascade from the time of placing the blood in the analyzer until initial fibrin formation, clot rate strengthening and fibrin-platelet bonding via GPIIb/IIIa, through eventual clot lysis. The TEG R parameter reflects the initiation phase, reaction time, from start of coagulation until the first fibrin band is formed; the Angle (α) represents the increase in clot strength, clot kinetics, correlating with the thrombin generation. The maximal amplitude (MA) parameter reflects maximal clot strength i.e. the maximal elastic modus of the clot.
Six healthy volunteers were administered Flolan (prostacyclin analog) intravenously at a dose of 4 ng/kg/min for 2 h. Blood samples for whole blood viscoelastical assay (Thrombelastography [TEG]) and whole blood platelet aggregation (Multiplate) was obtained before infusion of Flolan, after 60 min infusion of Flolan and after 120 min infusion of Flolan.
With regard to the TEG assay this was performed as recommended by the manufacturer and 340 μl are mixed with 20 μl CaCl 0.2 M (final concentration 11.1 mM in the cup) and kaolin at 37° C. after which the haemostatic activity was recorded as shown in WO 2010/075861.

[3] = system: platelet aggregation; assay: Multiplate whole blood impedance aggregometry during Flolan infusion; assay type: in vivo, healthy humans; settings: Flolan 4 ng/kg/min i.v. for 2 h; after 60 and 120 min infusion; any of the agonists investigated (ASPI, COL, TRAP, ADP); 6 volunteers
Description: Multiplate whole blood aggregometry is a platelet function test, (Multiplate®, Dynabyte Medical, Munich, Germany). […] The increase of impedance by the attachment of platelets onto the Multiplate sensors is transformed to arbitrary aggregation units (AU) and plotted against time. The aggregation can then be measured in AUC*min (area under the curve*min) determined by the plot of units against time. Additionally, the aggregation can also be expressed in units (U) (1 unit=10 AU*min). Multiplate thereby allows analyzing the effect of compounds on platelet aggregation. […] Blood samples for whole blood viscoelastical assay (Thrombelastography [TEG]) and whole blood platelet aggregation (Multiplate) was obtained before infusion of Flolan, after 60 min infusion of Flolan and after 120 min infusion of Flolan. Whole blood impedance aggregometry was analyzed by the Multiple Platelet function Analyzer (MultiPlate® analyzer). […]

[4] = system: thrombomodulin; assay: Plasma biomarker ELISA after Flolan infusion: thrombomodulin; assay type: in vivo, healthy individuals; settings: 4 ng/kg/min i.v. for 2 h; 8 healthy volunteers; plasma 0-24 h; effect continuing several hours after ceasing infusion
Description: (§1) Eight healthy volunteers were administered Flolane (Prostacyclin) intravenously at a dose of 4 ng/kg/min for 2 h. Blood samples were analyzed for plasma biomarkers indicative of endothelial cell (thrombomodulin, PAI-1) and glycocalyx (syndecan-1) activation and/or damage, cellular necrosis (histone-complexed DNA fragments, HMGB1) and anticoagulation (protein C, antithrombin, TFPI) at the following time points: Before the infusion (0 h), immediately after ceasing the infusion (2 h) and then 4 h, 5 h, 6 h, 8 h and 24 h after starting the infusion.
(§2) The concentration of the individual biomarkers in plasma was analyzed by commercially available ELISA kits according to the manufactures recommendations. Paired t-tests with p-values <0.05 were considered significant.

[5] = system: Protein C; assay: Plasma biomarker ELISA after Flolan infusion: Protein C; assay type: in vivo, healthy individuals; settings: 4 ng/kg/min i.v. for 2 h; 8 healthy volunteers; in the hours after ceasing the infusion
Description: as §1, §2

[6] = system: PAI-1; assay: Plasma biomarker ELISA after Flolan infusion: PAI-1; assay type: in vivo, healthy individuals; settings: 4 ng/kg/min i.v. for 2 h; 8 healthy volunteers; plasma 0-24 h
Description: as §1, §2

[7] = system: antithrombin; assay: Plasma biomarker ELISA after Flolan infusion: antithrombin; assay type: in vivo, healthy individuals; settings: 4 ng/kg/min i.v. for 2 h; 8 healthy volunteers; plasma 0-24 h
Description: as §1, §2

[8] = system: histone-complexed DNA fragments; assay: Plasma biomarker ELISA after Flolan infusion: histone-complexed DNA fragments; assay type: in vivo, healthy individuals; settings: 4 ng/kg/min i.v. for 2 h; 8 healthy volunteers; plasma 0-24 h
Description: as §1, §2

[9] = system: HMGB1; assay: Plasma biomarker ELISA after Flolan infusion: HMGB1; assay type: in vivo, healthy individuals; settings: 4 ng/kg/min i.v. for 2 h, 8 healthy volunteers
Description: as §1, §2

[10] = system: syndecan-1; assay: Plasma biomarker ELISA after Flolan infusion: syndecan-1; assay type: in vivo, healthy individuals; settings: 4 ng/kg/min i.v. for 2 h; 8 healthy volunteers; plasma 0-24 h
Description: as §1, §2

[11] = system: TFPI; assay: Plasma biomarker ELISA after Flolan infusion: TFPI; assay type: in vivo, healthy individuals; settings: 4 ng/kg/min i.v. for 2 h; 8 healthy volunteers; plasma 0-24 h
Description: as §1, §2

[12] = epoprostenol sodium compared with iloprost; cited from earlier work
[13] = infusion in doses below 2 ng/kg/minute; cited from earlier work

In the case of CC#CCC(C)[C@H](O)/C=C/[C@@H]1[C@H]2c3cccc(CCCC(=O)O)c3O[C@H]2C[C@H]1O (mixture of isomers) [beraprost], the half time [1] is given as 35 to 40 min.

With CCCCC[C@H](O)/C=C/[C@@H]1[C@H]2C/C(=C/CCCC(=O)O)O[C@H]2C[C@H]1O [Flolan, epoprostenol sodium] the “TEG Angle vs baseline” value [2] was “No significant difference”, the “TEG MA vs baseline” value [2] was “No significant difference” and the “TEG R vs baseline” value [2] was “No significant difference”. The “Multiplate values vs baseline” value [3] was “no significant difference”, the “circulating level of thrombomodulin” value [4] was “marked decrease” and the “circulating level of Protein C” value [5] was “decreased”. For the same molecule, the “circulating level of PAI-1” value [6] was “declined”, the “circulating level of antithrombin” value [7] was “decreased” and the “cell necrosis biomarker histone-complexed DNA fragments” value [8] was “did not influence”. The “HMGB1 at 5 h” value ([9]; 5 h after starting infusion, p=0.056) was “tendency towards a reduction”, the “cell necrosis biomarker HMGB1” value ([9]; plasma 0-24 h) was “did not influence” and the “glycocalyx shedding (syndecan-1)” value [10] was “did not induce or influence”. For the same molecule, the “circulating level of TFPI” value [11] was “did not induce or influence glycocalyx shedding (syndecan-1) (FIG. 6A) or affected the circulating level of TFPI”, the half time [1] was 0.5 to 3 min and the relative potency [12] was “equipotent”. The “duration of hypotensive episodes” value [13] was 1 to 2 h, the “side effects: bleeding tendency” value [13] was “no bleeding tendency” and the “side effects: hypotensive episodes” value [13] was “a few self-limiting hypotensive episodes”.

In the case of CC#CCC(C)[C@H](O)/C=C/[C@@H]1[C@H]2C/C(=C/CCCC(=O)O)C[C@H]2C[C@H]1O (stereo partly shown) [iloprost], the half time [1] is listed as 20 to 30 min and the relative potency [12] is listed as “equipotent”.

In the case of CCCCC[C@H](O)CC[C@@H]1[C@H]2Cc3cccc(OCC(=O)O)c3C[C@H]2C[C@H]1O [treprostinil], the half time [1] is listed as “less than 4 hours”.

— US20140044797A1, “PROSTACYCLIN AND ANALOGS THEREOF ADMINISTERED DURING SURGERY FOR PREVENTION AND TREATMENT OF CAPILLARY LEAKAGE” (Rigshospitalet, priority 2011, published 2014)
